The source of these data is US12350249B2, “Efficient anti-bacterial hydroxy acid ester oligomer” (NANJING BIOSERICA ERA BIOLOGICAL TECHNOLOGY CO., LTD., priority 2020, dated 2025).

In brackets after ≈: the same amount, converted by molar mass.

One may read the MIC as the smallest concentration in the dilution series that meets the test's criterion for growth inhibition.

Assay [1] deals with Escherichia coli ATCC25922. The assay can be described thus: Minimum inhibitory concentration MIC (agar method), Table 3. The assay is classed as cell-based. The method, then: (§1) Anti-bacterial tests and c log P theoretical calculation are performed on the products of the embodiment 2 and the embodiment 3, as shown in Table 3. [table]
Assay [2] relates to Escherichia coli ATCC25922. Nature of the assay: Minimum Inhibitory Concentration Test (Nutrition Broth Method), Table 3. The assay is classed as cell-based. The method, then:
as §1

Assay [3] deals with Escherichia coli ATCC 25922. Nature of the assay: Anti-bacterial experiment, GB/T 20944.3-2008 shake flask method. Format: cell-based. The method, then: Adding 10 g of 3-hydroxybutyrate ethyl ester and 0.01 g of zinc acetate (i.e. a mass ratio of 3-hydroxybutyrate ethyl ester is 0.1%) in a three-necked flask with mechanical stirring, a thermometer and a distillation device, wherein a stirring speed is approximately 150 revolutions; under an environment with a trace of nitrogen, increasing a temperature to 150° C. with a speed of 0.5-3° C./min to react for 1 hour, then stopping reaction to obtain a 3-HB oligomer; detecting a degree of polymerization by a mass spectrometry, wherein an anti-bacterial experiment refers to GB/T 20944.3-2008 Textiles-Evaluation for anti-bacterial activity-Part 3: Shake flask method, a strain used is Escherichia coli ATCC 25922.

Another assay has as its system S. aureus. Particulars: disclosed in CN110452115A; cited from earlier work.
The next assay has as its system C. albicans. The following applies: disclosed in CN110452115A; cited from earlier work.
The test system of the next assay is K. pneumoniae. Particulars: disclosed in CN110452115A; cited from earlier work.

For `CCCCCCOC(=O)[C@@H](C)O` [Embodiment 3-1, R-(−)-lactate hexyl ester], the “Minimum inhibitory concentration MIC (agar method)” value in assay [1] is recorded as 0.25%. In assay [2], this compound had a minimal inhibitory concentration (MIC) of 1.95 µg/mL (≈ 11.2 µM).

With `CCOC(=O)[C@@H](C)O` [Embodiment 3-2, R-(−)-lactate ethyl ester], the “Minimum inhibitory concentration MIC (agar method)” value in assay [1] is 5.25%. In assay [2], this compound registered a minimum inhibitory concentration (MIC) of 35.5 µg/mL (≈ 301 µM).

As for `CCOC(=O)C[C@@H](C)O` [Embodiment 2-2, R-(−)-3-hydroxybutyrate ethyl ester], in assay [1], the “Minimum inhibitory concentration MIC (agar method)” value worked out at 5%. Also, the MIC in assay [2] amounted to 31.2 µg/mL (≈ 236 µM).

For `CCCCCCOC(=O)C[C@@H](C)O` [Embodiment 2-6, R-(−)-3-hydroxybutyrate hexyl ester], the “Minimum inhibitory concentration MIC (agar method)” value in assay [1] is 0.25%. This compound registered an MIC in assay [2] of 1.95 µg/mL (≈ 10.4 µM).

With `COC(=O)C[C@@H](C)O` [Embodiment 2-1, R-(−)-3-hydroxybutyric methyl ester], the “Minimum inhibitory concentration MIC (agar method)” value in assay [1] was found to be 10%. The same compound showed a minimal inhibitory concentration (MIC) in assay [2] of 62.5 µg/mL (≈ 529 µM).

In the case of `CCCOC(=O)C[C@@H](C)O` [Embodiment 2-3, R-(−)-3-hydroxybutyrate propyl ester], the “Minimum inhibitory concentration MIC (agar method)” value in assay [1] stood at 2%. Further, in assay [2], the minimal inhibitory concentration (MIC) amounted to 15.6 µg/mL (≈ 107 µM).

Take `CCCCCCCCOC(=O)C[C@@H](C)O` [Embodiment 2-8, R-(−)-3-hydroxybutyrate octyl ester]: in assay [1], the “Minimum inhibitory concentration MIC (agar method)” value is more than 20%. Also, inhibition of growth in assay [2] (MIC) required 31.2 µg/mL (≈ 144 µM).

Regarding `CCCCCCCOC(=O)[C@@H](C)O` [Embodiment 3-3, R-(−)-lactate heptyl ester], the “Minimum inhibitory concentration MIC (agar method)” value in assay [1] is 4.38%. Moreover, 28.6 µg/mL (≈ 152 µM) was the least that counted as inhibitory in assay [2] (MIC).

For the compound “R-(−)-3-hydroxybutyrate ethyl ester oligomer [Embodiment 1-3]”, in assay [3], the “Anti-bacterial rate (%)” value came to 99%.

Take `CCCCOC(=O)C[C@@H](C)O` [Embodiment 2-4, R-(−)-3-hydroxybutyrate butyl ester]: the “Minimum inhibitory concentration MIC (agar method)” value in assay [1] came to 1%. Besides, the MIC in assay [2] amounted to 7.81 µg/mL (≈ 48.7 µM).

On to poly-3-hydroxybutyrate oligomer, for which the “minimum inhibitory concentration (MIC)” value with S. aureus was 6250 µg/mL; in the assay on C. albicans, 25000 µg/mL; in the assay on K. pneumoniae it was 12500 µg/mL.

On to `CCCCCCCOC(=O)C[C@@H](C)O` [Embodiment 2-7, R-(−)-3-hydroxybutyrate heptyl ester], for which the “Minimum inhibitory concentration MIC (agar method)” value in assay [1] is reported as more than 15%. In assay [2], the MIC stood at 31.2 µg/mL (≈ 154 µM).

As for `CCCCCOC(=O)C[C@@H](C)O` [Embodiment 2-5, R-(−)-3-hydroxybutyrate pentyl ester], the “Minimum inhibitory concentration MIC (agar method)” value in assay [1] is 0.5%. For the same compound, in assay [2], it took 3.91 µg/mL (≈ 22.4 µM) to inhibit growth (MIC).
